Experiments:
[1] = system: DN model Wistar rats induced by streptozotocin; assay: STZ DN model rat: urinary production, total protein, microalbumin and creatinine; format: in vivo; settings: for Microalbumin: urine
Procedure: (§1) The DN model Wistar rats were randomly divided into […] with 10 rats each group as indicated: normal glucose group; model group; CAL group (6, 2, 0.7 mg/kg); CAG group (9, 3, 1 mg/kg); CAL+CAG group (CAL:CAG, 2 mg/kg:1 mg/kg, 1 mg/kg:2 mg/kg); Radix Astragali group (5 g/kg); Aminoguanidine group (100 mg/kg).
(§2) The drugs or sodium chloride were intragastric adminstrated once each day for 14 weeks. After the administration, the total volume urine was collected by metabolic cage. The contents of urinary production, total protein, microalbumin and creatinine were determinated, and the biochemical indicators in blood was determinated using automatic biochemical analyzer. Then the kideny with fog Hahn fixation was reserved for histopathological examination.

[2] = system: DN model Wistar rats induced by streptozotocin; assay: STZ DN model rat: serum biochemical indicators; format: in vivo; parameters: AGEs (advanced glycosylation end products): unit not given here
Procedure: as §1, §2

[3] = system: DN model Wistar rats induced by streptozotocin; assay: STZ DN model rat: pathohistological indicators; format: in vivo; settings: kidney
Procedure: as §1, §2

[4] = system: Rat mesangial cell line HBZY21; assay: High glucose-induced rat mesangial cell proliferation (MTT reduction assay); format: cell-based; settings: 25 mM glucose, 24 h
Procedure: (§3) The mesangial cells in their exponential growth phase were cultured in 96-well plates at densities of 50000 cm^−2 in DMEM (5 mM glucose) at 37° C. in 5% CO2-95% air for 24 h. After pre-incubation in DMEM supplemented without fetal calf serum for 24 h, cells were then treated with various concentrations of glucose or AGEs for 24 h, 48 h, 72 h, 96 h, respectively.
(§4) According to the aboved method, after pre-incubation in DMEM supplemented without fetal calf serum for 24 h, cells were pretreated with 25 mM glucose, then were treated with various concentrations of reagents as indicated: normal glucose group (NG, 5.5 mM glucose); high glucose group (HG, 25 mM glucose); CAL group (CAL, 10, 100 nM); CAG group (CAG, 10, 100 nM); CAL+CAG group (CAL:CAG, 10 μg/ml:5 μg/ml, 5 μg/ml:10 μg/ml); Radix Astragali group (RA, 50 mg/ml aqueous extract). The plates were then incubated for 24 h. Proliferation was examined by MTT reduction assay. Experimental conditions were tested in sextuplicate (six wells of the 96-well plate per experimental condition).

[5] = system: Rat mesangial cell line HBZY21; assay: AGEs-induced rat mesangial cell proliferation (MTT reduction assay); format: cell-based; settings: 0.25 mg/ml AGEs, 24 h
Procedure: as §3
as §4, with “Cells” for “According to the aboved method, after pre-incubation in DMEM supplemented without fetal calf serum for 24 h, cells”, “0.25 mg/mlAGEs,” for “25 mM glucose,”, “AGEs” for “high glucose”, “(AGEs, 0.25 mg/mlAGEs);” for “(HG, 25 mM glucose);”

rat mesangial cells [6] = assay: Content of hydroxyproline in cell culture fluid of rat mesangial cells induced by high glucose; format: cell-based; settings: high glucose (25 mM)
Procedure: (§5) The treatment was the same as section 2.1 in Experiment 1. The measurement of matrix proliferation was measured by determinating the content of hydroxyproline and the expression of TGFβ-1.
(§6) The coverslips were pre-placed in the 24-wells plates to stick the cells. The cells were treated with various concentrations of reagents as indicated in Experiment 1. After the cells covered with coverslip, the supernatant was used for the determination of hydroxyproline and the slides of cells were treated with stained with immunohistochemical and PAS staining. The cells cultured without TGFβ-1 antibody were taken as the negative control.

rat mesangial cells [7] = assay: ECM accrementition induced by high glucose (PAS staining, FIG. 1); format: cell-based; settings: 25 mM glucose
Procedure: wherein A: normal glucose group; B: high glucose group (25 mM); C: Radix Astragali group (RA, 50 mg/ml aqueous extract); D: CAL group (100 nM); E: CAL group (10 nM); F: CAL group (1 nM); G: CAG group (100 nM); H: CAG group (10 nM); I: CAG group (1 nM); J: CAL:CAG group (10 μg/ml:5 μg/ml). K: CAL:CAG group ([…]:10 μg/ml).
as §5, §6

TGFβ-1 = TGFβ-1 expression induced by high glucose (immunohistochemical staining, FIG. 2); format: cell-based, rat; settings: 25 mM glucose
Procedure: wherein A: normal glucose group; B: high glucose group (25 mM); C: negative control group; D: CAL group (100 nM); E: CAL group (10 nM); F: CAL group (1 nM); G: CAG group (100 nM); H: CAG group (10 nM); I: CAG group (1 nM); J: Radix Astragali group (RA, 50 mg/ml aqueous extract); K: CAL:CAG group (10 μg/ml:5 μg/ml); L: CAL:CAG group (5 μg/ml:10 μg/ml).
as §5, §6

[8] = 100 mg/kg intragastric once each day for 14 weeks
[9] = 1 mg/kg intragastric once each day for 14 weeks
[10] = 3 mg/kg intragastric once each day for 14 weeks
[11] = 9 mg/kg intragastric once each day for 14 weeks
[12] = 0.7 mg/kg intragastric once each day for 14 weeks
[13] = 2 mg/kg intragastric once each day for 14 weeks
[14] = 6 mg/kg intragastric once each day for 14 weeks

N=C(N)NN [Aminoguanidine, reference compound]
Urinary production [1, 8]: 36.2 ± 21.8 mL | Urine creatinine [1, 8]: 4.0 ± 2.3 mM | Urine protein [1, 8]: 43.2 ± 29.9 mg | Microalbumin [1, 8]: 1.00 ± 0.27 mg | AGEs (advanced glycosylation end products) [2, 8]: 283 ± 78 | BUN (Blood urea nitrogen) [2, 8]: 6.6 ± 0.8 mmol/L | LDL [2, 8]: 2.01 ± 0.58 mmol/L | MDA (malonaldehyde) [2, 8]: 5.9 ± 1.7 nmol/mL | SOD (superoxide dismutase) [2, 8]: 516 ± 20 U/ml | Scr (serum creatinine) [2, 8]: 77.7 ± 20.3 µmol/L | triglyceride [2, 8]: 3.35 ± 0.87 mmol/L | ECM score (PAS %) [3, 8]: 26.5 ± 4.3 % | Patho-score [3, 8]: 2.1 ± 1.0 | TGFβ-1 (%) [3, 8]: 11.7 ± 5.7 %

COc1ccc(-c2coc3cc(O[C@@H]4O[C@H](CO)[C@@H](O)[C@H](O)[C@H]4O)ccc3c2=O)cc1O [CAG, 3′-hydroxy-4′-methoxyisoflavone-7-O-β-D-glucopyranoside]
OD value (λ = 490 nm) ([4]; 10 nM): 0.35 ± 0.04 | OD value (λ = 490 nm) ([4]; 100 nM): 0.33 ± 0.03 | OD value (λ = 490 nm) ([5]; 10 nM): 0.34 ± 0.06 | OD value (λ = 490 nm) ([5]; 100 nM): 0.33 ± 0.04 | Content of hydroxyproline in cell culture fluid (rat mesangial cells [6]; 10 nM): 6.25 ± 1.20 µg/mL | Content of hydroxyproline in cell culture fluid (rat mesangial cells [6]; 100 nM): 6.00 ± 1.53 µg/mL | ECM accrementition induced by high glucose (rat mesangial cells [7]): inhibited | expression of TGFβ-1 induced by high glucose (TGFβ-1): inhibited | Urinary production [1, 9]: 58.9 ± 20.5 mL | Urine creatinine [1, 9]: 1.3 ± 0.6 mM | Urine protein [1, 9]: 67.1 ± 18.4 mg | Urinary production [1, 10]: 42.3 ± 12.8 mL | Urine creatinine [1, 10]: 2.7 ± 1.1 mM | Urine protein [1, 10]: 55.0 ± 13.4 mg | Urinary production [1, 11]: 33.9 ± 20.2 mL | Urine creatinine [1, 11]: 4.2 ± 1.6 mM | Urine protein [1, 11]: 44.2 ± 20.6 mg | Microalbumin [1, 9]: 1.52 ± 0.56 mg | Microalbumin [1, 10]: 0.90 ± 0.45 mg | Microalbumin [1, 11]: 0.93 ± 0.22 mg | AGEs (advanced glycosylation end products) [2, 9]: 288 ± 44 | BUN (Blood urea nitrogen) [2, 9]: 6.9 ± 0.9 mmol/L | LDL [2, 9]: 1.94 ± 0.44 mmol/L | MDA (malonaldehyde) [2, 9]: 7.9 ± 1.6 nmol/mL | SOD (superoxide dismutase) [2, 9]: 490 ± 23 U/ml | Scr (serum creatinine) [2, 9]: 89.0 ± 21.1 µmol/L | triglyceride [2, 9]: 3.20 ± 0.71 mmol/L | AGEs (advanced glycosylation end products) [2, 10]: 281 ± 46 | BUN (Blood urea nitrogen) [2, 10]: 6.7 ± 0.8 mmol/L | LDL [2, 10]: 1.60 ± 0.43 mmol/L | MDA (malonaldehyde) [2, 10]: 6.5 ± 1.4 nmol/mL | SOD (superoxide dismutase) [2, 10]: 502 ± 31 U/ml | Scr (serum creatinine) [2, 10]: 73.5 ± 22.5 µmol/L | triglyceride [2, 10]: 2.66 ± 0.72 mmol/L | AGEs (advanced glycosylation end products) [2, 11]: 275 ± 68 | BUN (Blood urea nitrogen) [2, 11]: 5.9 ± 1.6 mmol/L | LDL [2, 11]: 1.23 ± 0.26 mmol/L | MDA (malonaldehyde) [2, 11]: 6.5 ± 1.2 nmol/mL | SOD (superoxide dismutase) [2, 11]: 512 ± 19 U/ml | Scr (serum creatinine) [2, 11]: 74.2 ± 16.0 µmol/L | triglyceride [2, 11]: 2.43 ± 0.70 mmol/L | ECM score (PAS %) [3, 9]: 32.5 ± 4.1% | Patho-score [3, 9]: 2.8 ± 0.9 | TGFβ-1 (%) [3, 9]: 20.0 ± 4.3 % | ECM score (PAS %) [3, 10]: 28.9 ± 5.4 % | Patho-score [3, 10]: 1.9 ± 1.1 | TGFβ-1 (%) [3, 10]: 16.2 ± 4.7 % | ECM score (PAS %) [3, 11]: 26.9 ± 4.5 % | Patho-score [3, 11]: 1.7 ± 0.9 | TGFβ-1 (%) [3, 11]: 9.1 ± 2.2 %

COc1ccc(-c2coc3cc(O)ccc3c2=O)cc1O [CAL]
OD value (λ = 490 nm) ([4]; 10 nM): 0.34 ± 0.02 | OD value (λ = 490 nm) ([4]; 100 nM): 0.33 ± 0.05 | OD value (λ = 490 nm) ([5]; 10 nM): 0.42 ± 0.04 | OD value (λ = 490 nm) ([5]; 100 nM): 0.34 ± 0.04 | Content of hydroxyproline in cell culture fluid (rat mesangial cells [6]; 10 nM): 7.15 ± 1.19 µg/mL | Content of hydroxyproline in cell culture fluid (rat mesangial cells [6]; 100 nM): 6.65 ± 1.74 µg/mL | ECM accrementition induced by high glucose (rat mesangial cells [7]): inhibited | expression of TGFβ-1 induced by high glucose (TGFβ-1): inhibited | Urinary production [1, 12]: 59.9 ± 21.8 mL | Urine creatinine [1, 12]: 1.4 ± 0.6 mM | Urine protein [1, 12]: 69.1 ± 20.4 mg | Urinary production [1, 13]: 41.3 ± 16.8 mL | Urine creatinine [1, 13]: 2.9 ± 1.2 mM | Urine protein [1, 13]: 54.0 ± 17.4 mg | Urinary production [1, 14]: 35.9 ± 22.2 mL | Urine creatinine [1, 14]: 4.3 ± 2.0 mM | Urine protein [1, 14]: 46.2 ± 21.3 mg | Microalbumin [1, 12]: 1.57 ± 0.56 mg | Microalbumin [1, 13]: 0.93 ± 0.55 mg | Microalbumin [1, 14]: 0.92 ± 0.42 mg | AGEs (advanced glycosylation end products) [2, 12]: 290 ± 59 | BUN (Blood urea nitrogen) [2, 12]: 7.0 ± 1.0 mmol/L | LDL [2, 12]: 1.91 ± 0.55 mmol/L | MDA (malonaldehyde) [2, 12]: 7.8 ± 2.3 nmol/mL | SOD (superoxide dismutase) [2, 12]: 498 ± 33 U/ml | Scr (serum creatinine) [2, 12]: 91.0 ± 31.1 µmol/L | triglyceride [2, 12]: 3.23 ± 0.76 mmol/L | AGEs (advanced glycosylation end products) [2, 13]: 289 ± 56 | BUN (Blood urea nitrogen) [2, 13]: 6.6 ± 1.2 mmol/L | LDL [2, 13]: 1.51 ± 0.53 mmol/L | MDA (malonaldehyde) [2, 13]: 6.8 ± 1.9 nmol/mL | SOD (superoxide dismutase) [2, 13]: 513 ± 41 U/ml | Scr (serum creatinine) [2, 13]: 76.6 ± 24.5 µmol/L | triglyceride [2, 13]: 2.76 ± 0.80 mmol/L | AGEs (advanced glycosylation end products) [2, 14]: 281 ± 78 | BUN (Blood urea nitrogen) [2, 14]: 6.5 ± 1.5 mmol/L | LDL [2, 14]: 1.43 ± 0.36 mmol/L | MDA (malonaldehyde) [2, 14]: 6.8 ± 1.3 nmol/mL | SOD (superoxide dismutase) [2, 14]: 520 ± 29 U/ml | Scr (serum creatinine) [2, 14]: 75.2 ± 17.1 µmol/L | triglyceride [2, 14]: 2.57 ± 0.80 mmol/L | ECM score (PAS %) [3, 12]: 33.1 ± 5.1% | Patho-score [3, 12]: 2.7 ± 1.0 | TGFβ-1 (%) [3, 12]: 19.3 ± 6.3 % | ECM score (PAS %) [3, 13]: 29.8 ± 5.6 % | Patho-score [3, 13]: 1.8 ± 1.3 | TGFβ-1 (%) [3, 13]: 17.6 ± 5.8 % | ECM score (PAS %) [3, 14]: 27.0 ± 5.5 % | Patho-score [3, 14]: 1.6 ± 1.1 | TGFβ-1 (%) [3, 14]: 8.8 ± 3.2 %

Source: patent US20110053872A1, “Pharmaceutical Composition For Preventing And Treating Diabetic Nephropathy And The Preparation Method Thereof” (GUANGZHOU CONSUN MEDICINE R & D CO., LTD., priority 2009, published 2011)
